In US20230114728A1 (Venatorx Pharmaceuticals, Inc., priority 2019, published 2023):
Converted amounts (≈) assume the structure as drawn.

Tests used:
E. coli K12 PBP3 = target: T1, E. coli K12 PBP3 (Escherichia coli, UniProt P0AD68); test: biochemical; format: binding
T1 construct: made in house
Excerpt: Example I: Experimental Method for Penicillin-Binding Protein Binding Assays with Bocillin-FL Via Fluorescence Polarization
To determine the ability of boronic acid-based test PBP inhibitors to bind Penicillin Binding Proteins (PBPs), Bocillin-FL (fluorescently-labeled penicillin V; ThermoFisher Scientific) was used in a fluorescence polarization (FP) competition binding assay to assess inhibitor binding to PBP2, PBP3 or PBP4 from Escherichia coli (K12), PBP3 from Pseudomonas aeruginosa (PA01), PBP1a, PBP2 and PBP3 from Acinetobacter baumannii (ATCC 19606), and PBP2 from Neiserria gonorrheae (FA19). PBPs were cloned and purified as described previously (E. coli PBPs, King, D. T, et al., ACS Infectious Diseases 2015, 1, 175-184; P. aeruginosa PBP3, Han et. al., PNAS 2010, 107 (51), 22002-22007; A. baumannii PBPs, Penwell et. al., Antimicrob. Agents Chemother. 2015, 59 (3), 1680-1689; N. gonorrhoeae PBP2, Singh et. al., J Biol. Chem. 2019, 294 (38), 14020-14032). To establish assay conditions for competition binding, enzyme titration/saturation binding experiments were initially performed. Bocillin-FL was prepared at 0.2 μM in a buffer comprised of 50 mM Hepes (pH 8.0), 300 mM NaCl and 5% (v/v) glycerol for reactions with E. coli, P. aeruginosa and N. gonorrhoeae PBPs, and 25 mM Tris (pH 8.0), 200 mM NaCl and 10% (v/v) glycerol and 0.005% (v/v) Tween 20 for reactions with A. baumannii PBPs. Saturation binding was performed by mixing 40 μl of PBP solutions ranging in concentrations from 0-24 μM with 40 μl of the 0.2 μM Bocillin-FL solution, in individual wells of a black 384-well microplate. FP was measured immediately upon mixing (Excitation, 490 nm; Emission, 520 nm; g-factor, 0.96), using a Cytation3 (BioTek) microplate reader and measured continuously for up to 120 minutes. […] The competition binding assay (80 μl final volume) was validated using beta-lactams and PBPs at final concentrations of: 1.5 μM, E. coli PBP3; 0.75 μM, P. aeruginosa PBP3; 1 μM A. baumannii PBP1a; 2.5 μM A. baumannii PBP2; 0.2 μM A. baumannii PBP3; and […] N. gonorrhoeae PBP2. Bocillin-FL was at 0.1 μM (0.05 μM with A. baumannii PBP1a) and beta-lactam concentrations ranged from 0-1000 μM. […] Bocillin-FL was added and the FP immediately measured for up to 60 minutes (90 minutes for E. coli PBP2). […] The beta-lactam potency was reported as the concentration of beta-lactam required to reduce the amount of PBP bound-Bocillin-FL by 50% (EC50). […] Binding assays for boronic acid PBP inhibitors were performed in an identical fashion for the respective PBPs

P. aeruginosa ATCC 27853 = test: Broth microdilution MIC in CAMHB; format: cell-based; conditions: Pseudomonas aeruginosa, ATCC27853; MHB; read-out: Minimum Inhibitory Concentration, P. aeruginosa ATCC 27853
Protocol: (§1) Example III: In Vitro Antibacterial Assays
(§2) To determine the ability of test compounds to inhibit the growth of bacterial strains, classic cell based broth microdilution minimum inhibitory concentration (MIC) assays were employed. MIC assays are performed according to CLSI methods except where otherwise noted (CLSI, 2018 and CLSI, 2019). The reference type strain E. coli ATCC 25922; the wild-type parent strain E. coli AG100; the hyper-permeable E. coli 901C and E. coli D22; and the E. coli AG100A strain lacking the acrAB efflux pump encoding genes were used to determine the ability of the PBP inhibitors to penetrate the outer membrane of gram-negative bacteria and inhibit bacterial growth. […] The P. aeruginosa ATCC 27853 and A. baumannii ATCC 19606, along with the hyper-permeable P. aeruginosa ATCC 35151 and an engineered efflux pump-compromised strain of P. aeruginosa (ΔmexAB-oprM) were used to determine the ability of PBP inhibitors to penetrate the outer membrane of P. aeruginosa and A. baumannii and assess antibacterial activity against these important gram-negative organisms.
(§3) Briefly, cryo-preserved bacterial cultures of challenge strains are streaked for isolation on appropriate agar medium, in this case cation-adjusted Mueller Hinton agar. Following incubation to allow growth of the colonies, plates are sealed with parafilm and stored refrigerated for up to two weeks. For preparation of assay inoculum and to ensure low variability, at least 5 colonies are picked from the agar plates with an inoculating loop and aseptically transferred to a culture tube containing 3 mL of cation-adjusted Mueller Hinton broth (CAMHB). The broth culture is grown for 3-5 hours at 37° C. with shaking at 200 rpm. Meanwhile, 2-fold serial dilutions of test compounds are conducted in a 96-well plate with a final volume of 75 μL per well at 2-fold the final desired concentration. After the dilution plates are set up the growing cultures are then diluted in a cuvette containing CAMHB and the optical density is measured at 600 nm. The inoculum is diluted such that 75 μL of this culture in CAMHB results in a starting bacterial concentration of 2-8×10^5 CFU/mL when added to the dilution plates. The plates are incubated for 16-20 hours for Enterobacteriaceae and Pseudomonas and 20-24 hours for Acinetobacter at 37° C. The MIC values are read visually as the lowest concentration well with no bacterial growth.

E. coli ATCC 25922 = test: Broth microdilution MIC in CAMHB; format: cell-based; conditions: Escherichia coli, ATCC25922; MHB; E. coli ATCC 25922; read-out: Minimum Inhibitory Concentration, E. coli 25922
Protocol: as §1, §2, §3

[1] = tested on: K. pneumoniae SI-117 producing VIM-1; test: Broth microdilution MIC in CAMHB; format: cell-based; conditions: Klebsiella pneumoniae, read-out: Minimum Inhibitory Concentration, K. pneumoniae SI-117
Protocol: as §1, §2, §3

A. baumannii ATCC 19606 = test: Broth microdilution MIC in CAMHB; format: cell-based; conditions: Acinetobacter baumannii, ATCC19606; MHB; read-out: Minimum Inhibitory Concentration, A. baumannii ATCC 19606
Protocol: as §1, §2, §3

E. coli AG100 = test: Broth microdilution MIC in CAMHB; format: cell-based; conditions: Escherichia coli; MHB; wild-type parent strain E. coli AG100; read-out: Minimum Inhibitory Concentration, E. coli AG100
Protocol: as §1, §2, §3

[2] = tested on: K. pneumoniae UMM producing SHV-5 and KPC-2; test: Broth microdilution MIC in CAMHB; format: cell-based; conditions: Klebsiella pneumoniae, read-out: Minimum Inhibitory Concentration, K. pneumoniae UMM
Protocol: as §1, §2, §3

E. coli D22 = test: Broth microdilution MIC in CAMHB; format: cell-based; conditions: Escherichia coli; MHB; hyper-permeable E. coli D22; read-out: Minimum Inhibitory Concentration, E. coli D22
Protocol: as §1, §2, §3

E. coli AG100A = test: Broth microdilution MIC in CAMHB; format: cell-based; conditions: Escherichia coli, read-out: Minimum Inhibitory Concentration, E. coli AG100A
Protocol: as §1, §2, §3

E. coli 901C = test: Broth microdilution MIC in CAMHB; format: cell-based; conditions: Escherichia coli; MHB; hyper-permeable E. coli 901C; read-out: Minimum Inhibitory Concentration, E. coli 901C
Protocol: as §1, §2, §3

[3] = tested on: P. aeruginosa (ΔmexAB-oprM); test: Broth microdilution MIC in CAMHB; format: cell-based; conditions: Pseudomonas aeruginosa, read-out: Minimum Inhibitory Concentration, P. aeruginosa ΔmexAB-OprM
Protocol: as §1, §2, §3

P. aeruginosa ATCC 35151 = test: Broth microdilution MIC in CAMHB; format: cell-based; conditions: Pseudomonas aeruginosa, ATCC35151; MHB; hyper-permeable strain; read-out: Minimum Inhibitory Concentration, P. aeruginosa ATCC 35151
Protocol: as §1, §2, §3

[4] = tested on: K. pneumoniae 848844 producing SHV-11 and KPC-2; test: Broth microdilution MIC in CAMHB; format: cell-based; conditions: Klebsiella pneumoniae, read-out: Minimum Inhibitory Concentration, K. pneumoniae 848844
Protocol: as §1, §2, §3

T1 sequence (P0AD68 1-577): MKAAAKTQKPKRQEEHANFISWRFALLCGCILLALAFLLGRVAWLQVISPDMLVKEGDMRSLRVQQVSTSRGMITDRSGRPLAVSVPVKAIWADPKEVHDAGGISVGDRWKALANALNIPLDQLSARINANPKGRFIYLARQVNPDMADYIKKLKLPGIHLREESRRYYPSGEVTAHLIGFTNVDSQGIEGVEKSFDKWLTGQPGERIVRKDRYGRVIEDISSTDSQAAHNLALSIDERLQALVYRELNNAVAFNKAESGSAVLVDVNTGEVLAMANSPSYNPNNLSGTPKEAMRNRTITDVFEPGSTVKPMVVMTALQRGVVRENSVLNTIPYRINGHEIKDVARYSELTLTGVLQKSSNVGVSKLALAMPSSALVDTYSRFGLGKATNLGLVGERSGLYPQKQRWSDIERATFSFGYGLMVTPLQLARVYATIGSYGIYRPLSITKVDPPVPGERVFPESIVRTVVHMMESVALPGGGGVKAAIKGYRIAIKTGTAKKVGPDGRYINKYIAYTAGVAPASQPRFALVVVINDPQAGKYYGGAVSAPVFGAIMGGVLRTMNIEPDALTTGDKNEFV

SMILES	EC50 (E. coli K12 PBP3) [µM]	MIC (P. aeruginosa ATCC 27853) [µg/mL]	MIC (E. coli ATCC 25922) [µg/mL]	MIC [1] [µg/mL]	MIC (A. baumannii ATCC 19606) [µg/mL]	MIC (E. coli AG100) [µg/mL]	MIC [2] [µg/mL]	MIC (E. coli D22) [µg/mL]	MIC (E. coli AG100A) [µg/mL]	MIC (E. coli 901C) [µg/mL]	MIC [3] [µg/mL]	MIC (P. aeruginosa ATCC 35151) [µg/mL]	MIC [4] [µg/mL]
NCCN1CCCN(C(=O)N[C@H](C(=O)N[C@H]2Cc3cccc(C(=O)O)c3OB2O)c2c(F)cc(O)cc2F)C1=O (single isomer, unassigned) [Example 231]	30 to 500	> 128	> 128	> 128	> 128	> 128	32 to 64 (≈ 57 to 114 µM)	> 128	> 128	> 128	> 128	8 to 16 (≈ 14.3 to 28.5 µM)	> 128
NC1(CN2CCN(C(=O)N[C@@H](C(=O)N[C@H]3Cc4cccc(C(=O)O)c4OB3O)c3ccc(O)c(F)c3F)C(=O)C2=O)CC1 (single isomer, unassigned) [Example 236]	< 30	> 128	32 to 64 (≈ 53.2 to 106 µM)	2 to 4 (≈ 3.33 to 6.65 µM)	> 128	32 to 64 (≈ 53.2 to 106 µM)	0.5 to 1 (≈ 0.831 to 1.66 µM)	32 to 64 (≈ 53.2 to 106 µM)	32 to 64 (≈ 53.2 to 106 µM)	32 to 64 (≈ 53.2 to 106 µM)	2 to 4 (≈ 3.33 to 6.65 µM)	< 0.25	32 to 64 (≈ 53.2 to 106 µM)
NC1(CN2CCN(C(=O)N[C@H](C(=O)N[C@H]3Cc4cccc(C(=O)O)c4OB3O)c3ccc(O)c(F)c3F)C(=O)C2=O)CC1 (single isomer, unassigned) [Example 237]	30 to 500	> 128	> 128	32 to 64 (≈ 53.2 to 106 µM)	> 128	> 128	2 to 4 (≈ 3.33 to 6.65 µM)	> 128	> 128	> 128	8 to 16 (≈ 13.3 to 26.6 µM)	0.5 to 1 (≈ 0.831 to 1.66 µM)	> 128
C[C@H]1CN(CCN)C(=O)C(=O)N1C(=O)N[C@@H](C(=O)N[C@H]1Cc2cccc(C(=O)O)c2OB1O)c1ccc(O)c(F)c1F [Example 242, (3R)-3-(2-((S)-4-(2-aminoethyl)-6-methyl-2,3-dioxopiperazine-1-carboxamido)-2-(2,3-difluoro-4-hydroxyphenyl)acetamido)-2-hydroxy-3,4-dihydro-2H-benzo[e][1,2]oxaborinine-8-carboxylic acid]	–	> 128	8 to 16 (≈ 13.6 to 27.2 µM)	2 to 4 (≈ 3.39 to 6.79 µM)	> 128	32 to 64 (≈ 54.3 to 109 µM)	0.5 to 1 (≈ 0.848 to 1.7 µM)	8 to 16 (≈ 13.6 to 27.2 µM)	32 to 64 (≈ 54.3 to 109 µM)	32 to 64 (≈ 54.3 to 109 µM)	8 to 16 (≈ 13.6 to 27.2 µM)	0.5 to 1 (≈ 0.848 to 1.7 µM)	32 to 64 (≈ 54.3 to 109 µM)
